Usually pIC50 stands for the negative decadic logarithm of the IC50, by convention in mol/L. A higher pIC50 goes with a low IC50.

One experiment relates to pregnant rats. In words: Test as abortifacient in female rats (termination of early pregnancy). To be noted: d5-d7 p.c., autopsy d9 p.c. In kind it is in vivo, rat. As to the method:
Test as Abortifacient in Female Rats
The antagonistic action of the compounds according to the invention was tested on pregnant rats (6 rats per group) on day 5 to 7 post coitum in conventional conditions of husbandry and feeding.
After successful mating, the pregnant animals (presence of sperm in the vaginal smear on day 1 of pregnancy=d1 p.c.) were randomized and were divided into the treatment group and the control group. The animals then received, subcutaneously or orally, in each case 0.15; 0.5; 1.5 or 5 mg/kg of the test compound or 1.0 ml/kg of vehicle (benzyl benzoate/castor oil: 1+4 [v/v]) daily from day 5 to day 7 (d5-d7 p.c.).
Autopsy was carried out on day 9 (d9 p.c.). For characterization of progesterone-receptor-antagonistic action, the uterus was investigated for the presence of nidation sites. Complete absence, but also the presence of pathological, haemorrhagic or otherwise abnormal nidation sites on day 9 (d9 p.c.) was assessed as abortion.

In experiment [1] the target is T1, human progesterone receptor B (Homo sapiens, UniProt P06401).
T1 construct: expressed in transfected cells; host or cells: SK-N-MC human neuroblastoma cells, stably transfected
T1 sequence (P06401 1-933): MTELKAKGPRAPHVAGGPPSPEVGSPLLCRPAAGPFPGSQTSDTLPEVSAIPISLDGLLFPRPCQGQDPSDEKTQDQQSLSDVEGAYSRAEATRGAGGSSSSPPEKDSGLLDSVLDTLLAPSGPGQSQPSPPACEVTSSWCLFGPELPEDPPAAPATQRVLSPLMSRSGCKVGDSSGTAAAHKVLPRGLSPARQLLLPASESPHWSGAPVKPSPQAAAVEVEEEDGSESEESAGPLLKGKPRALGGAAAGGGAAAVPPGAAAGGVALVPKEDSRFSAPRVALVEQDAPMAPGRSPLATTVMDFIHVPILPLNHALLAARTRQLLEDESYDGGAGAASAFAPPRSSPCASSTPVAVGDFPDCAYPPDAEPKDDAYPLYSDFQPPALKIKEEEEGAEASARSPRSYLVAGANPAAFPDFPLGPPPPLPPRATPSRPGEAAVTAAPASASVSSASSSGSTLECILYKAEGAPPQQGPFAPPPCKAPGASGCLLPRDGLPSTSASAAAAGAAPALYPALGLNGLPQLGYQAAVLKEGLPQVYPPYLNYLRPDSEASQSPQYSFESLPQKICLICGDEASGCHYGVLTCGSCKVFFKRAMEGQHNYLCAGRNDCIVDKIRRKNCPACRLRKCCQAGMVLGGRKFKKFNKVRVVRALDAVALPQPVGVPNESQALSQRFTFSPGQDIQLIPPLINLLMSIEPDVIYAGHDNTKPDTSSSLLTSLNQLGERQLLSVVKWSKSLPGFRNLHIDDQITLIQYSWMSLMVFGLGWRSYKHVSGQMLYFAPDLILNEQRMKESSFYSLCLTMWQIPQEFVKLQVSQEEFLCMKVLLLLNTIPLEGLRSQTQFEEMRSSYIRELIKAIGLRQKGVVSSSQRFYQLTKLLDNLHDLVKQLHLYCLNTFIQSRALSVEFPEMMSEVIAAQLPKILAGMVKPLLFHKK
In words: Progesterone-receptor-antagonistic action in stably transfected SK-N-MC cells, MTV-LUC reporter (PR-B). To be noted: antagonistic potency vs 0.1 nmol/l promegestone, 24 hours, luciferase. In kind it is cell-based. As to the method: Progesterone-Receptor-Antagonistic Action in Stable Transfectants of Human Neuroblastoma Cells (SK-N-MC Cells) with the Human Progesterone A or Progesterone B Receptor and an MTV-LUC Reporter Construct
SK-N-MC cells (human neuroblastoma cells) that have been stably transfected with plasmids that express the human progesterone receptor B (pRChPR-B-neo) or the human progesterone receptor A (pRChPR-A-neo) and a reporter construct (pMMTV-LUC), were incubated for 24 hours either in the absence (negative control) or in the presence of increasing amounts of the particular test compound (0.01 nmol/l, 0.1 nmol/l, 1 nmol/l, 10 nmol/l, 100 nmol/l and 1 μmol/l), to determine the agonistic efficacy. As positive control of reporter gene induction, the cells were treated with the synthetic gestagen promegestone (0.01 nmol/l, 0.1 nmol/l, 1 nmol/l, 10 nmol/l, 100 nmol/l and 1 μmol/l). For determination of the antagonistic activity, the cells were treated with 0.1 nmol/l promegestone and additionally with increasing amounts of the particular test compound (0.01 nmol/l, 0.1 nmol/l, 1 nmol/l, 10 nmol/l, 100 nmol/l and 1 μmol/l). The activity of the reporter gene LUC (LUC=luciferase) was determined in the cell lysates and was measured as RLU (relative light units). All measured values are given as % efficacy and as EC50 or IC50 concentrations.

pIC50: −log10 of the molar value.

With `C[C@]12C[C@H](c3ccc(-c4ccc(C(N)=O)cc4)cc3)C3=C4CCC(=O)C=C4CC[C@H]3[C@@H]1CC[C@@]2(O)C(F)(F)C(F)(F)F` [Example 79, 4′-[(11β,17β)-17-Hydroxy-3-oxo-17-(pentafluoroethyl)estra-4,9-dien-11-yl]biphenyl-4-carboxamide], the Abortion rate with pregnant rats (daily dose 0.5 mg/kg p.o.), with pregnant rats (daily dose 1.5 mg/kg p.o.) and in the experiment on pregnant rats (daily dose 5.0 mg/kg p.o.) was 100% in each case. In experiment [1], this molecule showed a pIC50 of 10.15.

These data come from patent US9109004B2, “Progesterone receptor antagonists” (Bayer Intellectual Property GmbH, priority 2010, dated 2015).
